In brackets after ≈: the same amount, converted by molar mass. Structures can show the parent of a compound that is named as a salt. Where two headings read alike, the source gives them in different places.
Assays:
Type in all cases: cell-based
[1] = system: A 204 rhabdomyosarcoma (A-cells); test: Inhibition of growth of human tumour cell line A 204 in vitro (PIT method of van Lambalgen and Lelieveld)
Method: (§1) A number of compounds were examined with the following human tumour cell lines according to the method of R. van Lambalgen and P. Lelieveld, "The PIT method: and automated in vitro technique for drug toxicity testing", Invest. New Drugs 5, 161-165, 1987.
A 204 rhabdomyosarcoma (A-cells)
(§2) The cell lines where maintained in a continuous logarithmic culture in Dulbeco's medium supplemented with 10% fetal calf serum, penicillin (100 IU/ml) and streptomycin (100 μg/ml).
(§3) The ID50 values of the above compounds, expressed in ng/ml, where determined according to the abovementioned method of van Lambalgen and Lelieveld. The ID50 value is the amount which inhibits 50% of the cell growth.

[2] = system: MCF-7 mammary carcinoma cells (M-cells); test: Inhibition of growth of human tumour cell line MCF-7 in vitro (PIT method of van Lambalgen and Lelieveld)
Method: as §1
MCF-7 mammary carcinoma cells (M-cells)
as §2, §3

[3] = system: T 24 bladder carcinoma cells (T-cells); test: Inhibition of growth of human tumour cell line T 24 in vitro (PIT method of van Lambalgen and Lelieveld)
Method: as §1
T 24 bladder carcinoma cells (T-cells)
as §2, §3

[4] = system: WiDr colon tumour cells (W-cells); test: Inhibition of growth of human tumour cell line WiDr in vitro (PIT method of van Lambalgen and Lelieveld); conditions: read-out: ID50 values in ng/ml, WiDr (amount which inhibits 50% of the cell growth)
Method: as §1
WiDr colon tumour cells (W-cells)
as §2, §3

[5] = system: IgR-37 melanoma cells (Z-cells); test: Inhibition of growth of human tumour cell line IgR-37 in vitro (PIT method of van Lambalgen and Lelieveld)
Method: as §1
IgR-37 melanoma cells (Z-cells)
as §2, §3

[6] = A204, read-out: ID50 values in ng/ml, A204 (amount which inhibits 50% of the cell growth)
[7] = MCF7, read-out: ID50 values in ng/ml, MCF-7 (amount which inhibits 50% of the cell growth)
[8] = T24, read-out: ID50 values in ng/ml, T24 (amount which inhibits 50% of the cell growth)
[9] = IGR-37, read-out: ID50 values in ng/ml, IgR-37 (amount which inhibits 50% of the cell growth)
[10] = A204, A 204 rhabdomyosarcoma cells, read-out: ID50 values in ng/ml, A204 (amount which inhibits 50% of the cell growth)
[11] = MCF7, MCF-7 mammary carcinoma cells, read-out: ID50 values in ng/ml, MCF-7 (amount which inhibits 50% of the cell growth)
[12] = T24, T 24 bladder carcinoma cells, read-out: ID50 values in ng/ml, T24 (amount which inhibits 50% of the cell growth)
[13] = IgR-37 melanoma cells, read-out: ID50 values in ng/ml, IgR-37 (amount which inhibits 50% of the cell growth)

SMILES	IC50 [1, 6] [ng/mL]	IC50 [2, 7] [ng/mL]	IC50 [3, 8] [ng/mL]	IC50 ([4]; WiDr) [ng/mL]	IC50 [5, 9] [ng/mL]	IC50 [1, 10] [ng/mL]	IC50 [2, 11] [ng/mL]	IC50 [3, 12] [ng/mL]	IC50 ([4]; WiDr colon tumour cells) [ng/mL]	IC50 [5, 13] [ng/mL]
COc1cccc2c1C(=O)c1c(O)c3c(c(O)c1C2=O)C[C@@](O)(C(=O)CO)C[C@@H]3O[C@H]1C[C@H](N)[C@H](O)[C@H](C)O1 [Adramycin.HCl, Adriamycin, reference compound]	4	6	18	16	6					
COc1cccc2c1C(=O)c1c(O)c3c(c(O)c1C2=O)C[C@@](O)(C(C)=O)C[C@@H]3O[C@H]1C[C@H](N)[C@H](O)[C@H](C)O1 [Daunomycin.HCl, Daunomycin, reference compound]	1	1	4	3	1					
COc1cc([C@@H]2c3cc4c(cc3[C@@H](O[C@@H]3O[C@@H]5CO[C@@H](C)O[C@H]5[C@H](O)[C@H]3O)[C@H]3COC(=O)[C@H]23)OCO4)cc(OC)c1O [Etoposide, reference compound]	91 (≈ 0.155 µM)	187 (≈ 0.318 µM)	457 (≈ 0.776 µM)	624 (≈ 1.06 µM)	427 (≈ 0.725 µM)					
C#C[C@]1(O)Cc2c(O)c3c(c(O)c2[C@@H](O[C@H]2C[C@H](N)[C@H](O)[C@H](C)O2)C1)C(=O)c1ccccc1C3=O [HRM01]						0.3 (≈ 0.000626 µM)	1 (≈ 0.00209 µM)	2 (≈ 0.00417 µM)	4 (≈ 0.00834 µM)	2 (≈ 0.00417 µM)
C[C@@H]1O[C@@H](O[C@H]2C[C@](O)(C#C[Si](C)(C)C)Cc3c(O)c4c(c(O)c32)C(=O)c2ccccc2C4=O)C[C@H](NC(=O)C(F)(F)F)[C@@H]1O [HRM03]	97 (≈ 0.15 µM)	151 (≈ 0.233 µM)	444 (≈ 0.686 µM)	156 (≈ 0.241 µM)	146 (≈ 0.225 µM)					
C#C[C@]1(O)Cc2c(O)c3c(c(O)c2[C@@H](O[C@H]2C[C@H](NC(=O)C(F)(F)F)[C@H](O)[C@H](C)O2)C1)C(=O)c1ccccc1C3=O [HRM04]						14 (≈ 0.0243 µM)	14 (≈ 0.0243 µM)	75 (≈ 0.13 µM)	43 (≈ 0.0747 µM)	18 (≈ 0.0313 µM)
CC(=O)[C@@]1(O)Cc2c(O)c3c(c(O)c2[C@H](O[C@H]2C[C@H](N)[C@H](O)[C@H](C)O2)C1)C(=O)c1ccccc1C3=O [HRM09, α-7.9-bis-epi-4-demethoxydaunomycin, reference compound]						302 (≈ 0.607 µM)	745 (≈ 1.5 µM)	1140 (≈ 2.3 µM)	501 (≈ 1.01 µM)	618 (≈ 1.24 µM)
C#C[C@@]1(O)Cc2c(O)c3c(c(O)c2[C@H](O[C@H]2C[C@H](N)[C@H](O)[C@H](C)O2)C1)C(=O)c1ccccc1C3=O [HRM10]						243 (≈ 0.507 µM)	420 (≈ 0.876 µM)	728 (≈ 1.52 µM)	372 (≈ 0.776 µM)	469 (≈ 0.978 µM)
CC(=O)C1(O)Cc2c(O)c3c(c(O)c2C(O[C@H]2C[C@H](N)[C@H](O)[C@H](C)O2)C1)C(=O)c1cc(C)cnc1C3=O (some centres unmarked) [HRM11]						45 (≈ 0.0878 µM)	67 (≈ 0.131 µM)	173 (≈ 0.338 µM)	139 (≈ 0.271 µM)	77 (≈ 0.15 µM)
C#C[C@]1(O)Cc2c(O)c3c(c(O)c2[C@@H](O[C@H]2C[C@H](N)[C@H](O)[C@H](C)O2)C1)C(=O)c1c(OC)cccc1C3=O [HRM12]						21 (≈ 0.0412 µM)	39 (≈ 0.0765 µM)	140 (≈ 0.275 µM)	87 (≈ 0.171 µM)	63 (≈ 0.124 µM)
CC(=O)[C@]1(O)CC2=C(C(=O)c3c(O)ccc(O)c3C2=O)[C@@H](O[C@H]2C[C@H](N)[C@H](O)[C@H](C)O2)C1 [HRM13]						729 (≈ 1.63 µM)	542 (≈ 1.21 µM)	1050 (≈ 2.34 µM)	1420 (≈ 3.18 µM)	2440 (≈ 5.46 µM)
CC(=O)C1(O)Cc2c(O)c3c(c(O)c2C(O[C@H]2C[C@H](N)[C@H](O)[C@H](C)O2)C1)C(=O)c1ncc(C)cc1C3=O (some centres unmarked) [HRM15]						171 (≈ 0.334 µM)	334 (≈ 0.652 µM)	949 (≈ 1.85 µM)	779 (≈ 1.52 µM)	459 (≈ 0.896 µM)
C#C[C@]1(O)CC2=C(C(=O)c3c(O)ccc(O)c3C2=O)[C@@H](O[C@H]2C[C@H](N)[C@H](O)[C@H](C)O2)C1 [HRM16]						280 (≈ 0.652 µM)	338 (≈ 0.787 µM)	1260 (≈ 2.94 µM)	2120 (≈ 4.93 µM)	1940 (≈ 4.51 µM)
